Source: patent US20020012630A1, “Methods for testing compounds useful in treating diabetic complications” (priority 2000, published 2002)
Where no end group is shown, it is not given here.

Experiments:
[1] = tested on: experimental wounds of streptozotocin-induced diabetic rats; test: Wound healing in experimental wounds of streptozotocin-induced diabetic rats; type: in vivo, rat; settings: 6-week streptozotocin-induced diabetic rats treated with 20 mg/kg, compared with normal untreated rats; FIGS. 5, 6A-6B
Description: The blood glucose levels of streptozotocin-induced diabetic rats was maintained at between 300-350 mg/dL with subcutaneous injection of insulin. Experimental wounds, having a diameter of […] and including the panniculus carnosus muscle, were made on the backs of diabetic rats. Wounds were serially photographed with a digital camera at the time of wounding, and then again every three days after wound induction until the time of closure, and the area of the wound measured (and expressed as cm^2). Wound closure was defined as complete epithelialization. The degree of wound contraction is calculated as: {(size of wound at day 0−size of wound at day X)/size of wound at day 0)}×100. Diabetic rats were administered 20 mg/kg of the aldose reductase inhibitor 3(4,5,7-triflurobenzothiazol-2-yl)methyl-indole-N-acetic acid at either the time of diabetes induction (simulating treatment prior to diabetic complications) or 6 weeks after diabetes induction (simulating treatment at the time of diabetic complications).

[2] = tested on: full-thickness skin wounds of db/db mice; settings: three doses on days 0, 1 and 2 under Tegederm wound dressing, dose of 10-1000 nM; cited from earlier work

O=C(O)Cn1cc(Cc2nc3c(F)c(F)cc(F)c3s2)c2ccccc21 [3-(4,5,7-triflurobenzothiazol-2-yl)methyl-indole-N-acetic acid]
wound healing rate (wound size and wound contraction) [1]: healed at the same rate as the wounds in normal rats

Substance P (RPKPQQFFGLM-NH2; ends and bridges not checked; UniProt P20366 58-68, looked up) [SP]
time of healing [2]: improved time of healing
